From PubChem BioAssay AID2060613 (Molecular Pharmacology Branch, DTP, NCI, 2025)
“And” between values parts separate entries of the source, which are not always exact repeats. Equal values may be shown once.

Tested on: 233499-124-R-J3-PDC complex spheroid viability
Assay: Anticancer human tumor 233499-124-R-J3-PDC patient-derived colon adenocarcinoma cell line growth inhibition [CLK]
Details: for viability, T/C: stronger effect = lower value
Excerpt: A high-throughput screen of multi-cell type tumor spheroids was designed to identify active combinations of […] and targeted small molecules. Complex spheroids include a stromal component modeled by human endothelial cells (HUVEC) and fibroblasts modeled by human mesenchymal stem cells (MSCs). The concentration ranges selected for each drug and investigational agent were based upon clinically achievable concentrations if the clinical Cmax of the agent was known.
Compounds. The drugs and investigational agents: cirtuvivint (SM08502; NSC835563), CC-671 (NSC850746), vemurafenib (NSC761431), tapotoclax (NSC804041), sotorasib (NSC818433), adagrasib (NSC831453), MRTX-1133 (NSC836407), BAY2416964 (NSC825713), copanlisib (NSC816437), inavolisib (NSC800729), abemaciclib (NSC768073), osimertinib (NSC779217), entinostat (NSC756642), eltanexor (KPT-8602, NSC794443), venetoclax (NSC766270), ceralasertib (NSC777638), bortezomib (NSC756655), olaparib (NSC753686), talazoparib (NSC767125), alisertib (NSC759677), peposertib (NSC802822), gemcitabine (NSC613327), 5-fluorouracil (NSC19893), SN-38 (NSC673596), oxaliplatin (NSC266046), paclitaxel (NSC125973), and doxorubicin (NSC123127), were obtained from the National Cancer Institute (NCI) Developmental Therapeutics Program Chemical Repository. The FDA-approved anticancer drug set is available from the Developmental Therapeutics Program at https://dtp.cancer.gov/organization/dscb/obtaining/available plates.htm. […] The stock solutions were prepared in dimethyl sulfoxide (DMSO, Sigma-Aldrich, St. Louis, MO, cat. D2650), except for the platinum complexes which were prepared in saline (Quality Biological, Gaithersburg, MD, cat. 114-055-101), at 800-fold the tested concentration and stored at -70 degrees C prior to their use. All drugs and investigational agents were tested over a range starting from a high concentration at or near the clinical Cmax and decreasing in half-log increments. If the clinical Cmax for an agent had not been determined, the highest concentration tested was 10 microM.
Cell Culture. All cells were maintained in an incubator at 37 degrees C and 5% CO2 with 95% humidity. The PDC lines were cultured according to standard operating procedures established by the NCI PDMR. Briefly, all PDCs were thawed and cultured in Matrigel-coated flasks prepared with a working solution of 1X Ham's F-12 nutrient mix, without supplementation (Invitrogen, Waltham, MA, cat. 11765054), 100 U/mL penicillin-streptomycin (Invitrogen, cat. 15140122), and 2.5% Matrigel (Corning Inc., Corning, NY, cat. 354248) for the first three passages. The 947758-054-R-J2-PDC line was cultured in 6B/Colon 1A media, which includes advanced DMEM/F-12 (Thermo Fisher Scientific, cat. 12634028), 10 mM HEPES (Thermo Fisher Scientific, cat. 15630080), 1X GlutaMAX supplement (Thermo Fisher Scientific, cat. 35050061), 0.1 mg/mL primocin (InvivoGen, cat. ant-pm-2), 10% defined fetal bovine serum, heat inactivated (HyClone Laboratories Inc., cat. SH30070.03HI), 1.25 mM N-Acetyl-L-cysteine (Sigma-Aldrich, cat. A9165), 10 mM nicotinamide (Sigma-Aldrich, cat. N0636), 1X B-27 supplement (Thermo Fisher Scientific, cat. 17504044), 1X N-2 supplement (Thermo Fisher Scientific, cat. 17502048), and 10 microM Y-27632 dihydrochloride (Tocris Bioscience, cat. 1254). The 876862-298-R-J1-PDC was cultured in 6E media, which includes all 6B/Colon 1A media components plus 50% L-WRN conditioned media (ATCC, cat. CRL-3276), 50 ng/mL recombinant human EGF recombinant protein (hEGF; Thermo Fisher Scientific, cat. PHG0311), 10 ng/mL recombinant human fibroblast growth factor 10 (hGFG-10; PeproTech, cat. 100-26), 1 ng/mL recombinant human fibroblast growth factor 2 (hFGF-2; PeproTech, cat. 100-18B), and 1 µM prostaglandin E2 (PGE2; Tocris, cat. 2296). The 227483-062-R1-J1-PDC line was cultured in Panc media, containing all 6E components except hFGF-2, with the addition of 500 nM SB-431542 (Selleckchem, cat. S1067) and 10 nM gastrin (Tocris, cat. 3006). […]
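Note: spheroids exposed to the drug combinations for seven days.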
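Throughout, for viability, T/C: percent viability relative to DMSO vehicle control wells taken as 100%.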

SMILES: NC(=O)C(=Cn1cnc(-c2cc(C(F)(F)F)cc(C(F)(F)F)c2)n1)c1cncnc1 + CNC(=O)c1ccc(Nc2nc(OC3CCCC3)c3c(-c4ccc5nc(C)oc5c4)c[nH]c3n2)c(OC)c1
- IC50 (curve of first compound, second compound 0.0316 µM): 618 nM
- IC50 (curve of first compound, second compound 0.1 µM): 263 nM
- IC50 (curve of first compound, second compound 0.316 µM): 197 nM
- IC50 (curve of first compound, second compound 1 µM): 133 nM
- IC50 (curve of first compound, second compound 3.16 µM): 157 nM
- IC50 (curve of first compound, second compound 10 µM): 161 nM
- viability, T/C (second compound 0.0316 µM, first compound 0.00949 µM): 85.5%
- viability, T/C (second compound 0.0316 µM, first compound 0.03 µM): 85.5%
- viability, T/C (second compound 0.0316 µM, first compound 0.0949 µM): 79.8%
- viability, T/C (second compound 0.0316 µM, first compound 0.3 µM): 78.2%
- viability, T/C (second compound 0.0316 µM, first compound 0.949 µM): 33.4%
- viability, T/C (second compound 0.0316 µM, first compound 3 µM): 15.5%
- viability, T/C (second compound 0.1 µM, first compound 0.00949 µM): 85.3%
- viability, T/C (second compound 0.1 µM, first compound 0.03 µM): 80.8%
- viability, T/C (second compound 0.1 µM, first compound 0.0949 µM): 72.8%
- viability, T/C (second compound 0.1 µM, first compound 0.3 µM): 34.5%
- viability, T/C (second compound 0.1 µM, first compound 0.949 µM): 44.1%
- viability, T/C (second compound 0.1 µM, first compound 3 µM): 15.7%
- viability, T/C (second compound 0.316 µM, first compound 0.00949 µM): 74.6%
- viability, T/C (second compound 0.316 µM, first compound 0.03 µM): 90.3%
- viability, T/C (second compound 0.316 µM, first compound 0.0949 µM): 81.5%
- viability, T/C (second compound 0.316 µM, first compound 0.3 µM): 31.8%
- viability, T/C (second compound 0.316 µM, first compound 0.949 µM): 35.3%
- viability, T/C (second compound 0.316 µM, first compound 3 µM): 12%
- viability, T/C (second compound 1 µM, first compound 0.00949 µM): 75.4%
- viability, T/C (second compound 1 µM, first compound 0.03 µM): 75.1%
- viability, T/C (second compound 1 µM, first compound 0.0949 µM): 51.2%
- viability, T/C (second compound 1 µM, first compound 0.3 µM): 39.9%
- viability, T/C (second compound 1 µM, first compound 0.949 µM): 11.4%
- viability, T/C (second compound 1 µM, first compound 3 µM): 10.6%
- viability, T/C (second compound 3.16 µM, first compound 0.00949 µM): 68.9%
- viability, T/C (second compound 3.16 µM, first compound 0.03 µM): 65%
- viability, T/C (second compound 3.16 µM, first compound 0.0949 µM): 71.1%
- viability, T/C (second compound 3.16 µM, first compound 0.3 µM): 26.3%
- viability, T/C (second compound 3.16 µM, first compound 0.949 µM): 9.48%
- viability, T/C (second compound 3.16 µM, first compound 3 µM): 4.46%
- viability, T/C (second compound 10 µM, first compound 0.00949 µM): 73.5%
- viability, T/C (second compound 10 µM, first compound 0.03 µM): 69.8%
- viability, T/C (second compound 10 µM, first compound 0.0949 µM): 67%
- viability, T/C (second compound 10 µM, first compound 0.3 µM): 30.5%
- viability, T/C (second compound 10 µM, first compound 0.949 µM): 6.86%
- viability, T/C (second compound 10 µM, first compound 3 µM): 1.62%

SMILES: CCN1CCN(Cc2ccc(Nc3ncc(F)c(-c4cc(F)c5nc(C)n(C(C)C)c5c4)n3)nc2)CC1
- viability, T/C (compound 0.00316 µM): 100% and 102%
- viability, T/C (compound 0.01 µM): 86.8% and 96.5%
- viability, T/C (compound 0.0316 µM): 98.5% and 88%
- viability, T/C (compound 0.1 µM): 93.8% and 104%
- viability, T/C (compound 0.316 µM): 94.1% and 98.2%
- viability, T/C (compound 1 µM): 102% and 64.3%
- IC50 (curve of compound): > 1000 nM
